This passage reports Ki and EC50 results from patent US11542313B2, “Incretin analogs and uses thereof” (Eli Lilly and Company, priority 2017, dated 2023).

*1 amine or outer side, *2 acyl side, *3 side chain or, on linkers, in order; H or OH if unused. Where a SMILES comes first, the peptide text is derived from it. Side-chain parts run from the residue outwards. [ ]: non-standard residue; d: D form. The star is where a group is joined. C20 diacid = O=C(O)CCCCCCCCCCCCCCCCCCC(=O)*; γGlu = O=C(O)[C@H](CCC(=O)[*:2])N[*:1]; αMeL = CC(C)C[C@](C)(N)C(=O)O; AEEA = NCCOCCOCC(=O)O; Aib = CC(C)(N)C(=O)O

What is called Ki is the equilibrium dissociation constant of an inhibitor or competing ligand from its target. The EC50 is the concentration that produces a half-maximal response.

Assay [1] concerns the target T1, human glucagon receptor (GcgR) (Homo sapiens, UniProt P47871).
T1 construct: expressed in transfected cells; host or cells: HEK293 (membranes)
The experiment in a line: Radioligand competition binding (SPA), human GcgR membranes. The following applies: HEK293 membranes, SPA, bacitracin present; mean; read-out: Ki, GcgR. The text has this: (§1) Radioligand competition binding assays are run to determine the equilibrium dissociation constant for exemplary compounds and comparator molecules.
(§2) Competition curves are plotted as the percent specific inhibition (y-axis) versus log concentration of compound (x-axis) and analyzed using a four parameter nonlinear regression fit with variable slope (ABase or Genedata).
(Displacement assays read how much labelled ligand stays bound in the presence of the test substance.)

The target in assay [2] is T2, human GIP receptor (GIPR) (Homo sapiens, UniProt P48546).
T2 construct: expressed in transfected cells; host or cells: HEK293 (membranes)
T2 sequence (P48546 22-466): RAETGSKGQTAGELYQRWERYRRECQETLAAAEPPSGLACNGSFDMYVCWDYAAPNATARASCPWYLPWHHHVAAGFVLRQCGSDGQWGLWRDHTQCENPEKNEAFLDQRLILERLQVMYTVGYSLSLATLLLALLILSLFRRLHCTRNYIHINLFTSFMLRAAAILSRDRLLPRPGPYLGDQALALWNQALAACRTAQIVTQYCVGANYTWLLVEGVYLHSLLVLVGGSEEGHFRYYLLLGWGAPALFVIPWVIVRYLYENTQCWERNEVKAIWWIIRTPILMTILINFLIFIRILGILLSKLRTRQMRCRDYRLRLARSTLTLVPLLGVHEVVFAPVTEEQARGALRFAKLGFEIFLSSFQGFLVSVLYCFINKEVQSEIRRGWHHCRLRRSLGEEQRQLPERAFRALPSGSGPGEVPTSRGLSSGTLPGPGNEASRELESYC
The experiment in a line: Radioligand competition binding (SPA), human GIPR membranes. The following applies: HEK293 membranes, SPA, bacitracin present; mean; read-out: Ki, GIPR.
Text: as §1, §2

A further assay deals with T3, GLP-1 receptor (GLP-1R) (Homo sapiens, UniProt P43220).
T3 construct: expressed in transfected cells; host or cells: HEK293 (membranes)
T3 sequence (P43220 24-463): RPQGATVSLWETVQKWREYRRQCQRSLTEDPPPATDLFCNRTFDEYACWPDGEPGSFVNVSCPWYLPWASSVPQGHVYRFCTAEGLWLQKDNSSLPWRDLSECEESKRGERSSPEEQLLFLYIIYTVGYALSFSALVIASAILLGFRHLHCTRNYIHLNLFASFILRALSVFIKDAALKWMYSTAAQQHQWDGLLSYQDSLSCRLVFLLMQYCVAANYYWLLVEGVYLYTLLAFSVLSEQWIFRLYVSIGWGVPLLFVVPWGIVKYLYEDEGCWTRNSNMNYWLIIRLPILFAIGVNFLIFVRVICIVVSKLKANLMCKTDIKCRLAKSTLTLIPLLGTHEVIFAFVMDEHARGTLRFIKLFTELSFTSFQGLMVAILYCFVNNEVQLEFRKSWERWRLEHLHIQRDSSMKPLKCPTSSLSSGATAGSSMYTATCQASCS
The experiment in a line: Radioligand competition binding (SPA), human GLP-1R membranes. The following applies: HEK293 membranes, SPA, bacitracin present; mean; read-out: Ki, GLP-1R.
Text: as §1, §2

The target of the next assay is T4, hGcgR (Homo sapiens, UniProt P47871).
T4 construct: expressed in transfected cells; host or cells: HEK293
T4 sequence (P47871 26-477): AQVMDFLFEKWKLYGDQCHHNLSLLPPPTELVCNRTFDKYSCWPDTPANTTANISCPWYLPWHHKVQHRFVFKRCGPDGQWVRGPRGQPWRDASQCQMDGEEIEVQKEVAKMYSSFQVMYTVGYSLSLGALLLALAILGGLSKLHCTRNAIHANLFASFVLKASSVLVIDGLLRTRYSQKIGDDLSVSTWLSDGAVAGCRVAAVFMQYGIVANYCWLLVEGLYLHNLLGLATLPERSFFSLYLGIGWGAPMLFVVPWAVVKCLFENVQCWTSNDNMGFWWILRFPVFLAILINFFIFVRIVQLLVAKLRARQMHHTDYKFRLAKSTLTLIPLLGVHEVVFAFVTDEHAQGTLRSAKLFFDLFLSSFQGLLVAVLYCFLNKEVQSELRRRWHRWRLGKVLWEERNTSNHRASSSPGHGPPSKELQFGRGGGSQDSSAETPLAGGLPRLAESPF
The experiment in a line: cAMP assay in HEK293 cells expressing hGcgR, 0.1% casein. The assay is classed as cell-based. The following applies: in the presence of 0.1% casein; read-out: cAMP EC50, GcGR.

The next assay has as its target T5, hGIPR (Homo sapiens, UniProt P48546).
T5 construct: expressed in transfected cells; host or cells: HEK293
T5 sequence (P48546 22-466): T2 sequence (P48546 22-466)
The experiment in a line: cAMP assay in HEK293 cells expressing hGIPR, 0.1% casein. The assay is classed as cell-based. The following applies: in the presence of 0.1% casein; read-out: cAMP EC50, GIPR. In general terms: Changes in cAMP serve as a functional read-out for many G protein-coupled receptors.

Another assay addresses hGLP-1R (Homo sapiens, UniProt P43220). The experiment in a line: cAMP assay in HEK293 cells expressing hGLP-1R, 0.1% casein. The assay is classed as cell-based. The following applies: in the presence of 0.1% casein; read-out: cAMP EC50, GLP-1R.

T1 sequence (P47871 26-477): as above
Sequence of hGLP-1R (P43220 24-463): as the sequence (P43220 24-463) above

As for `CC[C@H](C)[C@H](NC(=O)[C@H](Cc1ccccc1)NC(=O)[C@H](C)NC(=O)[C@H](Cc1c[nH]cn1)NC(=O)[C@H](CCC(N)=O)NC(=O)[C@H](C)NC(=O)[C@H](CCCCNC(=O)COCCOCCNC(=O)CC[C@H](NC(=O)CCCCCCCCCCCCCCCCCCC(=O)O)C(=O)O)NC(=O)[C@H](CCCCN)NC(=O)[C@H](CC(=O)O)NC(=O)[C@H](CC(C)C)NC(=O)[C@](C)(CC(C)C)NC(=O)[C@@H](NC(=O)[C@H](CO)NC(=O)[C@H](Cc1ccc(O)cc1)NC(=O)[C@H](CC(=O)O)NC(=O)[C@H](CO)NC(=O)[C@@H](NC(=O)[C@H](Cc1ccccc1)NC(=O)[C@@H](NC(=O)CNC(=O)[C@H](CCC(N)=O)NC(=O)C(C)(C)NC(=O)[C@@H](N)Cc1ccc(O)cc1)[C@@H](C)O)[C@@H](C)O)[C@@H](C)CC)C(=O)N[C@@H](CCC(=O)O)C(=O)N[C@@H](Cc1ccc(O)cc1)C(=O)N[C@@H](CC(C)C)C(=O)N[C@@H](CC(C)C)C(=O)N[C@@H](C)C(=O)NC(C)(C)C(=O)NCC(=O)N1CCC[C@H]1C(=O)N[C@@H](CO)C(=O)N[C@@H](CO)C(=O)NCC(=O)N[C@@H](C)C(=O)N1CCC[C@H]1C(=O)N1CCC[C@H]1C(=O)N1CCC[C@H]1C(=O)N[C@@H](CO)C(N)=O` [Example 2] (H-Y[Aib]QGTFTSDYSI[αMeL]LDKK([AEEA-γGlu-C20 diacid])AQHAFIEYLLA[Aib]GPSSGAPPPS-NH2), the results for the Ki (in assay [1]; in assay [2]; at GLP-1 receptor (GLP-1R)) were 3.71 nM, 0.0665 nM and 4.5 nM, respectively. Further, the EC50 was found to be 0.0553 nM at hGcgR, 0.0474 nM on hGIPR and 0.207 nM on hGLP-1R.

As to `CC[C@H](C)[C@H](NC(=O)[C@H](Cc1ccccc1)NC(=O)[C@H](C)NC(=O)[C@H](CCC(N)=O)NC(=O)[C@H](C)NC(=O)[C@H](C)NC(=O)[C@H](CCCCNC(=O)COCCOCCNC(=O)COCCOCCNC(=O)CC[C@H](NC(=O)CCCCCCCCCCCCCCCCCCC(=O)O)C(=O)O)NC(=O)[C@H](CCCCN)NC(=O)[C@H](CC(=O)O)NC(=O)[C@H](CC(C)C)NC(=O)[C@](C)(CC(C)C)NC(=O)[C@@H](NC(=O)[C@H](CO)NC(=O)[C@H](Cc1ccc(O)cc1)NC(=O)[C@H](CC(=O)O)NC(=O)[C@H](CO)NC(=O)[C@@H](NC(=O)[C@H](Cc1ccccc1)NC(=O)[C@@H](NC(=O)CNC(=O)[C@H](CCC(N)=O)NC(=O)C(C)(C)NC(=O)[C@@H](N)Cc1ccc(O)cc1)[C@@H](C)O)[C@@H](C)O)[C@@H](C)CC)C(=O)N[C@@H](CCC(=O)O)C(=O)N[C@@H](Cc1ccc(O)cc1)C(=O)N[C@@H](CC(C)C)C(=O)N[C@@H](CC(C)C)C(=O)N[C@@H](CCC(=O)O)C(=O)NC(C)(C)C(=O)NCC(=O)N1CCC[C@H]1C(=O)N[C@@H](CO)C(=O)N[C@@H](CO)C(=O)NCC(=O)N[C@@H](C)C(=O)N1CCC[C@H]1C(=O)N1CCC[C@H]1C(=O)N1CCC[C@H]1C(=O)N[C@@H](CO)C(N)=O` [Example 5] (H-Y[Aib]QGTFTSDYSI[αMeL]LDKK([AEEA-AEEA-γGlu-C20 diacid])AAQAFIEYLLE[Aib]GPSSGAPPPS-NH2), the Ki in assay [1] turned out to be 0.422 nM; in assay [2], 0.179 nM; on GLP-1 receptor (GLP-1R) it was 36.7 nM. Besides, the EC50 on hGcgR turned out to be 0.0226 nM; on hGIPR, 0.0757 nM; on hGLP-1R, 0.147 nM.

As for `CC[C@H](C)[C@H](NC(=O)[C@H](Cc1ccccc1)NC(=O)[C@H](C)NC(=O)[C@](C)(CCCCN)NC(=O)[C@H](CCC(N)=O)NC(=O)[C@H](C)NC(=O)[C@H](CCCCNC(=O)COCCOCCNC(=O)COCCOCCNC(=O)CC[C@H](NC(=O)CCCCCCCCCCCCCCCCCCC(=O)O)C(=O)O)NC(=O)[C@H](CCCCN)NC(=O)[C@H](CC(=O)O)NC(=O)[C@H](CC(C)C)NC(=O)[C@H](CC(C)C)NC(=O)[C@@H](NC(=O)[C@H](CO)NC(=O)[C@H](Cc1ccc(O)cc1)NC(=O)[C@H](CC(=O)O)NC(=O)[C@H](CO)NC(=O)[C@@H](NC(=O)[C@H](Cc1ccccc1)NC(=O)[C@@H](NC(=O)CNC(=O)[C@H](CCC(N)=O)NC(=O)C(C)(C)NC(=O)[C@@H](N)Cc1ccc(O)cc1)[C@@H](C)O)[C@@H](C)O)[C@@H](C)CC)C(=O)N[C@@H](CCC(=O)O)C(=O)N[C@@H](Cc1ccc(O)cc1)C(=O)N[C@@H](CC(C)C)C(=O)N[C@@H](CC(C)C)C(=O)N[C@@H](CCC(=O)O)C(=O)NCC(=O)NCC(=O)N1CCC[C@H]1C(=O)N[C@@H](CO)C(=O)N[C@@H](CO)C(=O)NCC(=O)N[C@@H](C)C(=O)N1CCC[C@H]1C(=O)N1CCC[C@H]1C(=O)N1CCC[C@H]1C(=O)N[C@@H](CO)C(N)=O` [Example 8], the values for the inhibition constant Ki (in assay [1]; in assay [2]; on GLP-1 receptor (GLP-1R)) were 30.4 nM, 0.0958 nM and 29.4 nM, respectively. In addition, the EC50 is 0.12 nM on hGcgR, 0.114 nM on hGIPR and 0.117 nM at hGLP-1R.

On to `CC[C@H](C)[C@H](NC(=O)[C@H](Cc1ccccc1)NC(=O)[C@H](C)NC(=O)[C@H](Cc1c[nH]cn1)NC(=O)[C@H](CCC(N)=O)NC(=O)[C@H](C)NC(=O)[C@H](CCCCNC(=O)CC[C@H](NC(=O)CC[C@H](NC(=O)CCCCCCCCCCCCCCCCCCC(=O)O)C(=O)O)C(=O)O)NC(=O)[C@H](CCCCN)NC(=O)[C@H](CC(=O)O)NC(=O)[C@H](CC(C)C)NC(=O)[C@](C)(CC(C)C)NC(=O)[C@@H](NC(=O)[C@H](CO)NC(=O)[C@H](Cc1ccc(O)cc1)NC(=O)[C@H](CC(=O)O)NC(=O)[C@H](CO)NC(=O)[C@@H](NC(=O)[C@H](Cc1ccccc1)NC(=O)[C@@H](NC(=O)CNC(=O)[C@H](CCC(N)=O)NC(=O)C(C)(C)NC(=O)[C@@H](N)Cc1ccc(O)cc1)[C@@H](C)O)[C@@H](C)O)[C@@H](C)CC)C(=O)N[C@@H](CCC(=O)O)C(=O)N[C@@H](Cc1ccc(O)cc1)C(=O)N[C@@H](CC(C)C)C(=O)N[C@@H](CC(C)C)C(=O)N[C@@H](CCC(=O)O)C(=O)NCC(=O)NCC(=O)N1CCC[C@H]1C(=O)N[C@@H](CO)C(=O)N[C@@H](CO)C(=O)NCC(=O)N[C@@H](C)C(=O)N1CCC[C@H]1C(=O)N1CCC[C@H]1C(=O)N1CCC[C@H]1C(=O)N[C@@H](CO)C(N)=O` [Example 9] (H-Y[Aib]QGTFTSDYSI[αMeL]LDKK([γGlu-γGlu-C20 diacid])AQHAFIEYLLEGGPSSGAPPPS-NH2; N-terminus assumed), for which the inhibition constant (Ki) in assay [1] is 8.27 nM; in assay [2], 0.126 nM; on GLP-1 receptor (GLP-1R), 11.5 nM. The EC50 at hGcgR was 0.139 nM; at hGIPR, 0.0522 nM; at hGLP-1R, 0.0931 nM.

As to `CC[C@H](C)[C@H](NC(=O)[C@H](Cc1ccccc1)NC(=O)[C@H](C)NC(=O)C(C)(C)NC(=O)[C@H](CCC(N)=O)NC(=O)[C@H](C)NC(=O)[C@H](CCCCNC(=O)COCCOCCNC(=O)CC[C@H](NC(=O)CCCCCCCCCCCCCCCCCCC(=O)O)C(=O)O)NC(=O)[C@H](CCCCN)NC(=O)[C@H](CC(=O)O)NC(=O)[C@H](CC(C)C)NC(=O)[C@](C)(CC(C)C)NC(=O)[C@@H](NC(=O)[C@H](CO)NC(=O)[C@H](Cc1ccc(O)cc1)NC(=O)[C@H](CC(=O)O)NC(=O)[C@H](CO)NC(=O)[C@@H](NC(=O)[C@H](Cc1ccccc1)NC(=O)[C@@H](NC(=O)CNC(=O)[C@H](CCC(N)=O)NC(=O)C(C)(C)NC(=O)[C@@H](N)Cc1ccc(O)cc1)[C@@H](C)O)[C@@H](C)O)[C@@H](C)CC)C(=O)N[C@@H](CCC(=O)O)C(=O)N[C@@H](Cc1ccc(O)cc1)C(=O)N[C@@H](CC(C)C)C(=O)N[C@@H](CC(C)C)C(=O)N[C@@H](CCC(=O)O)C(=O)NC(C)(C)C(=O)NCC(=O)N1CCC[C@H]1C(=O)N[C@@H](CO)C(=O)N[C@@H](CO)C(=O)NC(C)(C)C(=O)N[C@@H](C)C(=O)N1CCC[C@H]1C(=O)N1CCC[C@H]1C(=O)N1CCC[C@H]1C(=O)N[C@@H](CO)C(N)=O` [Example 14] (H-Y[Aib]QGTFTSDYSI[αMeL]LDKK([AEEA-γGlu-C20 diacid])AQ[Aib]AFIEYLLE[Aib]GPSS[Aib]APPPS-NH2; N-terminus assumed), the values for the inhibition constant Ki (in assay [1]; in assay [2]; on GLP-1 receptor (GLP-1R)) were 2.64 nM, 0.035 nM and 6.27 nM, respectively. Also, the results for the concentration giving a half-maximal response (EC50) on hGcgR, at hGIPR and at hGLP-1R were 0.0876 nM, 0.0356 nM and 0.146 nM, respectively.
